11 compounds from patent publication US20230382940A1, “ANTIVIRAL COMPOUNDS AND METHODS OF MAKING AND USING THE SAME” (Gilead Sciences, Inc., priority 2022, published 2023) can be followed below.

In data set [1] the test system is Human Rhinovirus 16 (HRV16). The experiment in a line: H1-HeLa HRV-CTG 384-well assay, HRV16, Example X. The note with it: Rhinovirus A, 96 h; H1-HeLa cells, HRV16 MOI 0.25, 4 days, Celltiter-Glo; read-out: EC50 H1-HeLa_HRV 16_HRV-CTG 384-well Assay (per Ex. X). The class given is cell-based. The text has this: (§1) Example X: H1-HeLa HRV-CTG 384-Well Assay
(§2) H1-Hela cell line (ATCC, Manassas, VA, Cat #CRL-1958) was maintained in Dulbecco's […] (DMEM) (Corning, New York, NY, Cat #15-018CM) supplemented with 10% fetal bovine serum (FBS) (Hyclone, Logan, UT, Cat #SH30071-03), and 1× Penicillin-Streptomycin-L-Glutamine (Corning, New York, NY, Cat #30-009-CI). Cells were passaged 2 times per week to maintain sub-confluent densities and were used for experiments at passage 5-30. The Human Rhinovirus 1B (HRV1B) (ATCC, Manassas, VA, Cat #VR-1645), Human Rhinovirus 14 (HRV14) (ATCC, Manassas, VA, Cat #VR-284), and Human Rhinovirus 16 (HRV16) (ATCC, Manassas, VA, Cat #BR-283) was obtained through ATCC. Viral infection was monitored by determining viability of H1-HeLa cells as described below.
(§3) Test molecules are prepared in 100% DMSO in 384-well polypropylene plates (Greiner, Monroe, NC, Cat #784201) with 8 compounds per plate in grouped replicates of 4 at 10 serially diluted concentrations (1:3). The serially diluted compounds were transferred to low dead volume Echo plates (Labcyte, Sunnyvale, CA, Cat #LP-0200).
(§4) The test compounds were spotted to 384-well assay plates (Greiner, Monroe, NC, Cat #781091) at 200 nL per well using an Echo acoustic dispenser (Labcyte, Sunnyvale, CA). H1-HeLa cells were harvested and suspended in DMEM (supplemented with 2% FBS and 1× Penicillin-Streptomycin-L-Glutamine) and seeded to the pre-spotted assay plates at 5,000 cells per well in 30 μL. HRV1B, HRV14, and HRV16 was diluted in DMEM (supplemented with 2% FBS and 1× Penicillin-Streptomycin-L-Glutamine) at 97.1 million Infectious Units (IU) per mL, 151 million IU per mL and 221 million IU per mL respectively. 10 μL of virus per well was added to the assay plates containing cells and compounds, for an MOI of 0.5, 1.0, and 0.25 respectively. The assay plates were incubated for 4 days at 37° C. and 5% CO2. At the end of incubation, Celltiter-Glo (Promega, Madison, WI, Cat #G7573) was prepared. The assay plates and Celltiter-Glo reagent were equilibrated to room temperature for at least 15 minutes. 40 μL per well of Celltiter-Glo reagent was added and the plates were incubated at room temperature for 15 minutes before reading the luminescence signal on an EnVision multimode plate reader (Perkin Elmer, Waltham, MA). Rupintrivir was used as positive control and DMSO was used as negative control. Values were normalized to the positive and negative controls (as 0% and 100% replication, respectively) and data was fitted using non-linear regression analysis by Gilead's dose response tool. The EC50 value for each compound was defined as the concentration reducing viral replication by 50%.

Data set [2] relates to Human Rhinovirus 1B (HRV1B). The experiment in a line: H1-HeLa HRV-CTG 384-well assay, HRV1B, Example X. The class given is cell-based. The note with it: Rhinovirus A, 96 h; H1-HeLa cells, HRV1B MOI 0.5, 4 days, Celltiter-Glo; read-out: EC50 H1-HeLa_HRV 1B_HRV-CTG 384-well Assay (per Ex. X).
Text: as §1, §2, §3, §4
On the technique in general: Cellular ATP, detected with luciferase, serves as a proxy for viable cell number.

Data set [3] in a line: GI S9 stability, rat, Example Y. The class given is in vitro ADME. The note with it: pooled intestinal S9 fractions; rat intestinal S9, 1.0 mg/mL protein, 2 μM compound, pH 7.4; read-out: GIS9 Rat T½ (per Ex. Y). On the procedure:
(§5) Example Y: GI S9 Stability Data
(§6) Stock solutions of test compounds in dimethyl sulfoxide (DMSO) having a final concentration of 10 mM were prepared and used in all experiments. Sekisui XenoTech (Kansas City, KS) provided pooled intestinal S9 fractions. All other chemicals were purchased from Sigma-Aldrich (St. Louis, MO) or VWR (West Chester, PA). Internal Standard/Quench (IS/Q) used to stop reactions was 100 nM labetalol in (by volume) methanol (10%) and acetonitrile (90%).
(§7) Stability in Intestinal S9 Fractions: Duplicate aliquots of test compound or positive control substrate were added to S9 stock diluted with phosphate buffered saline (137 mM NaCl, 2.7 mM KCl, 10 mM phosphate buffer), pH 7.4, to obtain a protein concentration of 1.0 mg/mL. The metabolic reactions were initiated by the addition of the substrates to the S9 reaction mixture to a final concentration of 2 μM. At 0, 10, 20, 30, 60 and 120 min, 25 μL aliquots of the reaction mixture were transferred to plates containing 225 μl of IS/Q solution. After quenching, the plates were centrifuged at 3000×g for 30 minutes. 150 μL aliquots of each supernatant were dried down then reconstituted with 300 μL water. Aliquots (10 μL) of the prepared samples were analyzed on a Thermo Q-Exactive mass spectrometer as described below.
(§8) Liquid Chromatography—Mass Spectrometry: Quantification of test compounds and control substrate was performed by analyte/internal standard peak area ratio (PAR) values measured on a Thermo Q-Exactive mass spectrometer coupled to a Dionex UltiMate 3000 HPLC with a Leap Technologies HTC PAL autosampler. The column used for analysis was a Waters Acquity BEH C18 (1.7 μm particle size, 2.1×50 mm). Mobile phase A consisted of 0.1% (v/v) formic acid in water. Mobile phase B consisted of 0.1% (v/v) formic acid in acetonitrile. Elution of analytes was achieved by a series of linear gradients varying the proportions of A and B. The mass spectrometer was calibrated on a weekly basis and mass tolerance of 5 ppm was used.
(§9) Metabolic stabilities in S9 fractions were determined by measuring the rates of disappearance of test compound and positive control substrate.
(§10) Data (% of substrate remaining) were plotted on a semi-log scale and fitted using an exponential decline model:
(§11) Ct=C0×e^−ln2/T1/2×t • Where Ct—% of substrate remaining at time=t; C0—% of substrate remaining at time=0; t—time; T1/2—half-life. • The Half-life (T1/2) is determined by the following equation: […]
(§12) Assuming a first-order reaction, the slope (k) is extrapolated from the aforementioned plotted data.

Data set [4] in a line: GI S9 stability, dog, Example Y. Format: in vitro ADME. The note with it: pooled intestinal S9 fractions; dog intestinal S9, 1.0 mg/mL protein, 2 μM compound, pH 7.4; read-out: GIS9 DOG T½ (per Ex. Y). As for the experimental part:
as §5, §6, §7, §8, §9, §10, §11, §12

A short description of data set [5]: GI S9 stability, cyno, Example Y. Format: in vitro ADME. The note with it: cynomolgus monkey, pooled intestinal S9 fractions; cyno intestinal S9, 1.0 mg/mL protein, 2 μM compound, pH 7.4; read-out: GIS9 Cyno T½ (per Ex. Y). As for the experimental part:
as §5, §6, §7, §8, §9, §10, §11, §12

The term EC50 denotes the concentration that produces a half-maximal response. In the case of `N#C[C@]1(COC(=O)OC2CCCC2)O[C@@H](c2ccc3c(N)ncnn23)[C@H](O)[C@@H]1O` [Compound 1, ((2R,3S,4R,5S)-5-(4-aminopyrrolo[2,1-f][1,2,4]triazin-7-yl)-2-cyano-3,4-dihydroxytetrahydrofuran-2-yl)methyl cyclopentyl carbonate], the concentration giving a half-maximal response (EC50) in data set [1] was determined as 31.2 µM; in data set [2], 8.65 µM. Moreover, the half-life at 2 μM in data set [3] came to 6 min; in data set [4], 256 min; in data set [5], 11 min.

Take `CC(C)(C)COC(=O)OC[C@@]1(C#N)O[C@@H](c2ccc3c(N)ncnn23)[C@H](O)[C@@H]1O` [Compound 2, ((2R,3S,4R,5S)-5-(4-aminopyrrolo[2,1-f][1,2,4]triazin-7-yl)-2-cyano-3,4-dihydroxytetrahydrofuran-2-yl)methyl neopentyl carbonate]: the values for the EC50 in data set [1] and in data set [2] were 9.74 µM and 7 µM, respectively. Moreover, the half-life at 2 μM in data set [3] is 6 min; in data set [4], 162 min; in data set [5] it was 4 min.

Consider `N#C[C@]1(COC(=O)OC2CCOCC2)O[C@@H](c2ccc3c(N)ncnn23)[C@H](O)[C@@H]1O` [Compound 12, ((2R,3S,4R,5S)-5-(4-aminopyrrolo[2,1-f][1,2,4]triazin-7-yl)-2-cyano-3,4-dihydroxytetrahydrofuran-2-yl)methyl (tetrahydro-2H-pyran-4-yl) carbonate], for which the 50% effective concentration (EC50) in data set [1] came to 30.3 µM; in data set [2] it was 10 µM. The half-life at 2 μM in data set [3] is 58 min; in data set [5] it was 274 min.

Consider `N#C[C@]1(COC(=O)OCC2CC2)O[C@@H](c2ccc3c(N)ncnn23)[C@H](O)[C@@H]1O` [Compound 32, ((2R,3S,4R,5S)-5-(4-aminopyrrolo[2,1-f][1,2,4]triazin-7-yl)-2-cyano-3,4-dihydroxytetrahydrofuran-2-yl)methyl (cyclopropylmethyl) carbonate], for which the EC50 in data set [1] was found to be 12.1 µM; in data set [2], 5.69 µM. In data set [3], the half-life at 2 μM turned out to be 8 min.

Regarding `CCCOCCOC(=O)OC[C@@]1(C#N)O[C@@H](c2ccc3c(N)ncnn23)[C@H](O)[C@@H]1O` [Compound 34, ((2R,3S,4R,5S)-5-(4-aminopyrrolo[2,1-f][1,2,4]triazin-7-yl)-2-cyano-3,4-dihydroxytetrahydrofuran-2-yl)methyl (2-propoxyethyl) carbonate], the EC50 in data set [1] is 12.1 µM; in data set [2], 7.31 µM. The half-life at 2 μM in data set [3] came out at 11 min.

As for `CC(C)(C)CCOC(=O)OC[C@@]1(C#N)O[C@@H](c2ccc3c(N)ncnn23)[C@H](O)[C@@H]1O` [Compound 35, ((2R,3S,4R,5S)-5-(4-aminopyrrolo[2,1-f][1,2,4]triazin-7-yl)-2-cyano-3,4-dihydroxytetrahydrofuran-2-yl)methyl (3,3-dimethylbutyl) carbonate], the EC50 in data set [1] was found to be 15.1 µM; in data set [2], 8.63 µM. For the same compound, the half-life at 2 μM in data set [3] is 4 min.

As to `N#C[C@]1(COC(=O)OC2CC3(CCC3)C2)O[C@@H](c2ccc3c(N)ncnn23)[C@H](O)[C@@H]1O` [Compound 36, ((2R,3S,4R,5S)-5-(4-aminopyrrolo[2,1-f][1,2,4]triazin-7-yl)-2-cyano-3,4-dihydroxytetrahydrofuran-2-yl)methyl spiro[3.3]heptan-2-yl carbonate], the half-maximal effective concentration (EC50) in data set [1] worked out at 12 µM; in data set [2] it was 5.93 µM. The half-life at 2 μM in data set [3] was 3 min.

Take `CC1(C)CC(OC(=O)OC[C@@]2(C#N)O[C@@H](c3ccc4c(N)ncnn34)[C@H](O)[C@@H]2O)C1` [Compound 37, ((2R,3S,4R,5S)-5-(4-aminopyrrolo[2,1-f][1,2,4]triazin-7-yl)-2-cyano-3,4-dihydroxytetrahydrofuran-2-yl)methyl (3,3-dimethylcyclobutyl) carbonate]: the EC50 was 12.6 µM in data set [1] and 6.74 µM in data set [2]. Besides, the half-life at 2 μM in data set [3] was 4 min.

With `COC[C@@H](C)OC(=O)OC[C@@]1(C#N)O[C@@H](c2ccc3c(N)ncnn23)[C@H](O)[C@@H]1O` [Compound 38, ((2R,3S,4R,5S)-5-(4-aminopyrrolo[2,1-f][1,2,4]triazin-7-yl)-2-cyano-3,4-dihydroxytetrahydrofuran-2-yl)methyl ((R)-1-methoxypropan-2-yl) carbonate], the results for the half-maximal effective concentration (EC50) in data set [1] and in data set [2] were 40 µM and 23.8 µM, respectively. Besides, the half-life at 2 μM in data set [3] was 38 min.

Consider `N#C[C@]1(COC(=O)O[C@@H]2C[C@@H]3C[C@@H]3C2)O[C@@H](c2ccc3c(N)ncnn23)[C@H](O)[C@@H]1O` [Compound 39, ((2R,3S,4R,5S)-5-(4-aminopyrrolo[2,1-f][1,2,4]triazin-7-yl)-2-cyano-3,4-dihydroxytetrahydrofuran-2-yl)methyl ((1R,3r,5S)-bicyclo[3.1.0]hexan-3-yl) carbonate], for which the concentration for a half-maximal effect (EC50) in data set [1] was 22 µM; in data set [2], 8.26 µM. For the same compound, the half-life at 2 μM in data set [3] was found to be 7 min.

Consider `C[C@H]1CC[C@H](OC(=O)OC[C@@]2(C#N)O[C@@H](c3ccc4c(N)ncnn34)[C@H](O)[C@@H]2O)CC1` [Compound 40, ((2R,3S,4R,5S)-5-(4-aminopyrrolo[2,1-f][1,2,4]triazin-7-yl)-2-cyano-3,4-dihydroxytetrahydrofuran-2-yl)methyl ((1r,4R)-4-methylcyclohexyl) carbonate], for which the values for the half-maximal effective concentration (EC50) in data set [1] and in data set [2] were 29.3 µM and 9.48 µM, respectively. The half-life at 2 μM in data set [3] was 6 min.
